The source of these data is patent publication US9617197B2, “Compositions and methods for treating inflammatory diseases” (University of Virginia Patent Foundation, priority 2010, dated 2017).

Series [1] can be described thus: Chemical stability in pH 6.7 buffer. It is filed as physicochemical.
Series [2] can be described thus: Toxicity in murine pre-clinical models. Type of series: in vivo.
Series [3] addresses T1, human recombinant LTA4H enzyme (LTA4H AP activity) (Homo sapiens, UniProt P09960).
T1 sequence (P09960 1-611): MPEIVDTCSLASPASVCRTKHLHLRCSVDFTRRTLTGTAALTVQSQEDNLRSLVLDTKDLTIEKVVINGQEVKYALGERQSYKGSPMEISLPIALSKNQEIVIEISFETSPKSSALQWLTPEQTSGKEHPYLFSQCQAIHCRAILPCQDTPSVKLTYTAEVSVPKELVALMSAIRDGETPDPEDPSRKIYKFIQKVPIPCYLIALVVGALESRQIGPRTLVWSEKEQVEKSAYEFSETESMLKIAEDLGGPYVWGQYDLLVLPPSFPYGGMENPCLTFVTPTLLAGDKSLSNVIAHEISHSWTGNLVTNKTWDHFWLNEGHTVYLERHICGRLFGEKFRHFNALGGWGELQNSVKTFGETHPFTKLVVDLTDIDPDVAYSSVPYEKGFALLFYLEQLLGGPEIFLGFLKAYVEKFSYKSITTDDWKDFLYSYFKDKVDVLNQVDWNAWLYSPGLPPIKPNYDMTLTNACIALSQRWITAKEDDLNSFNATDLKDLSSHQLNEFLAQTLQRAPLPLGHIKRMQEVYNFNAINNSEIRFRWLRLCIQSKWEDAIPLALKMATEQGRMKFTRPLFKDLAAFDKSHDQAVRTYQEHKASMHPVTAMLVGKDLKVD
Conditions: Jiang et al. (2008); cited from earlier work.

Series [4] concerns the target T1, human recombinant LTA4H enzyme (LTA4H AP activity). Kind of series: In vitro aminopeptidase activity assay. It is filed as biochemical. To be noted: recombinant LTA4H + Ala-pNA; 500 μM, 10 μM, 5 μM, 100 nM; FIG. 2. The protocol:
FIG. 2. In vitro aminopeptidase activity assay. The peptidase activity of compounds was determined following the method of Jiang and co-workers (2008). […] No Enzyme=buffer. Enzy=buffer+recombinant LTA4H. 500 μM, 10 μM, 5 μM, and 100 nM=buffer+recombinant LTA4H+Ala-pNA+MDM.
FIG. 7. Biological activities of 2-hydroxypropyl-β-cyclodextrin encapsulated 4-methoxydiphenylmethane (“CDX-MDM”). […] No Enzyme=buffer. 0 M=buffer+recombinant LTA4H+Ala-pNA+no MDM. 500 μM, 10 μM, 5 μM, and 100 nM=buffer+recombinant LTA4H+Ala-pNA+MDM (500 μM, 10 μM, 5 μM, or100 nM).
(§1) In order to establish the biological roles of LTA4H AP activity in the pathogenesis of pulmonary emphysema, wild type mice were exposed to porcine elastase via the intra-nasal route and then treated with one LTA4H AP activity augmentor (compound 66, MDM), a LTA4H AP activity inhibitor (compound 67, PDM), or vehicle (peanut oil). Synthesis of MDM was accomplished by treatment of 4-benzyl phenol in dimethylformamide solvent with potassium hydroxide followed by methyl iodide (FIG. 1). Synthesis of compound PDM was accomplished by treatment of 4-benzyl phenol in dimethylformamide solvent with potassium hydroxide followed by butyl iodide (FIG. 1). The peptidase activity of the compound was determined following the method of Jiang and co-workers (2008).

Series [5] concerns elastase induced murine pulmonary emphysema. The series is described as follows: Elastase-induced murine pulmonary emphysema model. Type of series: in vivo, mice. Conditions: for pre mortem lung compliance (Flexivent): 4 weeks after intra-nasal elastase, drug intra-peritoneal in peanut oil, FIG. 3; for severity of pulmonary emphysema: vs vehicle treated control animals. As for the experimental part: To investigate the role that LTA4H plays in the pathogenesis of human diseases, murine models of elastase-induced pulmonary emphysema (Example 1) and LPS-induced acute lung injury (Example 3) were tested. In order to establish the elastase-dose dependent severity of murine pulmonary emphysema, increasing doses of porcine elastase were instilled into murine lungs of 129J background via the intra-nasal route. Four weeks after elastase was instilled, mouse lungs were harvested en block, inflated with 1% low melting point agarose gel (LMPA) at 25 cm melted 1% LMPA pressure. Lungs were then fixed overnight in formaldehyde. […] This confirmed that intra-nasal elastase administration was able to induce pulmonary emphysema in a dose-dependent manner.
as §1
Elastase (0.75 μg elastase per gm mouse weight) was instilled via the intra-nasal route. After 4 weeks, mice were sedated, intubated, and ventilated with Sireq Flexivent to measure lung compliance pre mortem. It was understood that lungs with more severe emphysema would have lost more elasticity, and thus, their lung compliance would be greater when measured by a small animal ventilator (FIG. 3). Once lung compliance was measured, mice were euthanized. Lungs were harvested en block without damaging outer coverings. Once harvested, lungs were inflated with 1% low melting point agarose gel (LMPA) at 25 cm melted 1% LMPA gel pressure. Once inflated, the total lung volumes were measured by volume displacement technique (FIG. 4). It was understood that lungs with more severe emphysema would have lost more elasticity, and thus their lung volume would be greater after being inflated with a uniform pressure. After the total lung volume measurement, lungs were fixed in para-formaldehyde overnight. On the following day, whole lungs were photographed (FIG. 5). Lungs with more severe emphysema would have lost more elasticity, and thus their lungs would be larger after being fixed with para-formaldehyde. The lungs were then paraffin embedded, paraffin sections were H&E stained (FIG. 6A), and morphometry was performed by using NIH ImagePro software and custom written macro string (Shim et al., 2006; Shim et al., 2010; Zheng et al., 2000; Zu et al., 1999). Alveolar intercepts were calculated and averaged from at least 8 animals in each group to yield chord length of each group (FIG. 6B). It was understood that alveoli from lungs with more severe emphysema would be larger after losing more elasticity and thus their chord length of the alveoli would be longer.

A further series in a line: Bioavailability in mice. Type of series: in vivo.
The nature of series [6]: Encapsulation and equilibrium solubility test (HPLC). It is filed as physicochemical. As for the experimental part:
To 5.3 mg (1.0 equivalent) of MDM was added 160.0 mg (4.0 equivalents) of CDX followed by 4.8 mL of water. […] The homogeneity of the solution was analyzed by HPLC.
Solubility measurement. […] Method: isocratic 80:20 acetonitrile-water at 1.0 mL/min, injection volume=5 μL, monitoring at λ=250 nm.
The method was carried out above with phosphate buffer saline (PBS, Ampresco, 20× concentrate, pH7.5; 500 μL of PBS concentrate was added to 9500 μL of water). To 6.0 mg (1.0 equivalents) of MDM was added 180.0 mg (4.0 equivalents) of CDX followed by 5.8 mL of water. […] The homogeneity of the solution was analyzed by HPLC.
The method was carried out as above. To 2.4 mg (1.0 equivalents) of MDM was added 0.035 g (2.0 equivalents) of CDX followed by 2.4 mL of PBS solution. […] The homogeneity of the solution was analyzed by HPLC.

`COc1ccc(Oc2ccccc2)cc1` [1-methoxy-4-phenoxybenzene]: the “chemical stability in pH 6.7 buffer” value in series [1] is “chemical instability”. In series [2], the mortality entry is on record as “greater than 85%”. The “LTA4H AP activity in vitro” value in series [3] is recorded as “upregulates”.
Regarding `COc1ccc(Cc2ccccc2)cc1` [MDM, 4-methoxydiphenylmethane], the “LTA4H AP activity” value in series [4] is recorded as “augment”. In addition, the “chemical stability in pH 6.7 buffer” value in series [1] is on record as “stable”. In addition, in series [5], the “pre mortem lung compliance (Flexivent)” value is recorded as “significantly lower lung compliance” and the “severity of pulmonary emphysema” value is reported as “significantly less severe”. Besides, the “post mortem total lung volume (volume displacement)” value in series [5] (vs PDM or vehicle control, FIG. 4) is reported as “much less emphysematous”. In series [5] (vs PDM or vehicle control, FIG. 5), the “gross size of inflated whole lungs” value is “much smaller”. Also, the “lung histology chord length” value in series [5] (vs drug 67 or vehicle (peanut oil), FIG. 6) is recorded as “shorter”. The bioavailability entry in the series “Bioavailability in mice” (encapsulated formulation with 2-hydroxypropyl-β-cyclodextrin, intra-nasal administration to mice) was “bioavailable”. Further, the bioavailability entry in “Bioavailability in mice” (intra-peritoneal injection of mice, MDM combined with peanut oil) is on record as “bioavailable”. For the same molecule, the “concentration in solution by standard curve” value in series [6] (1:2 MDM:CDX in PBS, calculated 5.04 mM) is 2950 µM. Besides, in series [6] (1:2 ratio of MDM:CDX in PBS), the “fraction of the MDM in the homogeneous solution at equilibrium” value came out at 59%. Besides, the “solubility with 2 equivalents of CDX” value in series [6] (PBS solution) came to 590 µg/mL.
Consider `CCCCCOc1ccc(Cc2ccccc2)cc1` [PDM, 4-pentoxydiphenylmethane], for which, in series [4], the “LTA4H AP activity” value is recorded as “decrease”. In addition, in series [5], the “pre mortem lung compliance (Flexivent)” value is “high lung compliance similar to lungs treated with vehicle” and the “severity of pulmonary emphysema” value was “deleterious outcomes”.
